From paper PMC4295843, “Metabolism of Androstenone, 17β-Estradiol and Dihydrotestosterone in Primary Cultured Pig Hepatocytes and the Role of 3β-Hydroxysteroid Dehydrogenase in This Process” (PLoS ONE, 2015) come the findings set out here.

Data set [1] deals with primary cultured pig hepatocytes. Put plainly: Steroid metabolism in primary cultured pig hepatocytes, LC-TOF-MS of cell culture medium. As to conditions: for Peak height of the ion chromatogram of the steroid metabolite in cell culture medium, C: 48 h incubation in absence of enzyme inhibitors, 10 µM parent steroid, Mean ± SD.
For data set [2] the test system is unchanged. The settings on record: male, Large White, 10 µM.
A short description of data set [3]: Cytotoxicity of steroids and HSD inhibitors (CellTiter-Glo Luminescent Cell Viability Assay). The settings on record: male, Large White, pig. The protocol:
Primary pig hepatocytes were isolated from Large White male pigs (3–5 days old) using procedure described by Chen et al.. The experimental protocol for using animals was approved by the Animal Ethics Committee of the China Agricultural University, Beijing, China (permission number: 2011-11-23-1). […] Approximately 5×10^6 cells were plated into 10 cm Petri dishes with 10 ml of Dulbecco modified Eagle’s medium (DMEM) containing 20% fetal bovine serum (FBS) supplemented with insulin (10 mg/L), penicillin (100 U/mL) and streptomycin (100 µg/mL). Hepatocytes were incubated for 24 h in a humidified atmosphere at 37°C with 5% of CO2.
After the incubation, the primary pig hepatocytes were washed three times with phosphate buffer saline solution (PBS) before they were treated with steroids and/or inhibitors. In steroid metabolism studies, hepatocytes were incubated in 10 ml of basal growth medium containing phenol red-free DMEM with 10% of charcoal treated FBS fortified with 10 µM (final concentration) of androstenone, 17β-estradiol or dihydrotestosterone. In the inhibition experiments, 10 µM (final concentration) of trilostane or apigenin, the specific inhibitors of 3βHSD and 17βHSD respectively, were added to hepatocytes simultaneously with androstenone, 17β-estradiol or dihydrotestosterone. Solutions of both, the inhibitors and steroids, were prepared in methanol. […] In the cytotoxicity text, the steroids were incubated with different concentrations of inhibitors (1, 10, 25 and 50 µM) for 48 h. The cell viability was analyzed using CellTiter-Glo Luminescent Cell Viability Assay (Promega, Madison, WI) reagent following manufacture’s protocol. The cell culture medium was collected at the following time points: 0, 6, 12, 18, 24, 30, 36, 42 and 48 h after adding steroids and/or inhibitors, and was stored at −80°C until metabolites analysis. Cells treated with basal growth medium were used as control. The experiments were repeated in three different days. Experiments on each of the three days were conducted in triplicate.

Data set [4] deals with 17βHSD. In words: Inhibition of steroid glucuronide metabolite formation in pig hepatocytes by the 17βHSD inhibitor. In kind it is cell-based. The protocol:
(§1) The experiments were repeated in three different days.
(§2) Extraction procedure for steroid metabolites was as follows: two mL of cell culture medium was taken in duplicate from each hepatocytes incubation and split into two samples, 1 mL per sample. One sample was treated with 0.1 mL of 30% trichloroacetic acid (TCA) to precipitate protein. The protein precipitation procedure was optimized by analyzing protein residues using HPLC at ultraviolet wavelength (240 nm). Another sample was pre-treated with β-glucuronidase prior to protein precipitation. The pre-treatment involved incubation with 2 mL of PBS buffer (pH = 5.0) in the presence of β-glucuronidase (2.08 µkat) for 16 h at 37°C. The samples were centrifuged at 17226 g for 10 min. All of the supernatants were collected and loaded onto a SPE cartridge (Bond Elut-C18, 500 mg/3 mL, Agilent, Lake Forest, CA, USA) preconditioned with 3 mL of methanol and water. The cartridges were washed with 3 mL of water and 3 mL 5% of methanol and then vacuum dried. The analytes were eluted with 9 mL of acetonitrile (ACN). The elutants were evaporated under nitrogen and reconstituted with 400 µL of 62.5% methanol. Solvents were passed through 0.22 µm filter paper (Jinteng company, Tianjin, China), and then transferred to inserts for analysis. The recoveries were determined by analyzing spiked samples in a basal medium. The recoveries for androstenone, 17β-estradiol and dihydrotestosterone were in a range of 60–95%.
(§3) Steroid metabolites were analyzed by LC-TOF-MS (QSTAR Elite, AB Sciex, ON, Canada) equipped with an electrospray ion source (TurboIonSpray) and controlled by Analyst QS 2.0 software. ESI source was run on both, a positive and negative mode. Spectrometry parameters were as follows: ion source GS1 and GS2 were 0.41 and 0.34 MPa, respectively. Curtain gas was 0.14 MPa. Collision gas was 0.04 MPa. All the gases were supplied with nitrogen (purity≥99.995%). IonSpray voltage was 5500 V (ESI+) and −4200 V (ESI–). Ion source temperature was 500°C. Declustering Potential (DP) was 60 V (ESI+) and −60 V (ESI–). The Q1 mass monitoring was conducted using a scan mode in the range from 200 to 600 m/z. Mass intensity above 100 counts was set for acquiring product ions on TOF analyzer. An information dependent acquisition (IDA) method was set to optimize data acquisition.
(§4) Chromatographic separation was conducted using HPLC coupled to mass spectrometry (1200 SL, Agilent Technologies, USA) equipped with a binary pump, vacuum solvent degasser, column oven and autosampler (Agilent Technologies, Waldbronn, Germany). The column used was Zorbax Eclipse Plus C18 (2.1×100 mm, 3.5 µm) with a guard column (2.1×12.5 mm, 5 µm) (Agilent Technologies, USA). For the ESI+ mode, the mobile phase was 0.1% formic acid in water (A) and methanol (B). For the ESI– mode, the mobile phase was 0.1% ammonium in water (A) and methanol (B). The linear gradient used was as follows: 50% to 95% solvent B at 0–5 min; 95% solvent at 9 min, 50% solvent B at 9.1 and 15 min. The flow rate was 300 µL/min, and the sample injection volume was 20 µL.

The target of data set [5] is T1, 3βHSD (Sus scrofa, UniProt Q9N119).
T1 construct: endogenous in cells; host or cells: primary hepatocytes of Large White male pigs
T1 sequence (Q9N119 1-373): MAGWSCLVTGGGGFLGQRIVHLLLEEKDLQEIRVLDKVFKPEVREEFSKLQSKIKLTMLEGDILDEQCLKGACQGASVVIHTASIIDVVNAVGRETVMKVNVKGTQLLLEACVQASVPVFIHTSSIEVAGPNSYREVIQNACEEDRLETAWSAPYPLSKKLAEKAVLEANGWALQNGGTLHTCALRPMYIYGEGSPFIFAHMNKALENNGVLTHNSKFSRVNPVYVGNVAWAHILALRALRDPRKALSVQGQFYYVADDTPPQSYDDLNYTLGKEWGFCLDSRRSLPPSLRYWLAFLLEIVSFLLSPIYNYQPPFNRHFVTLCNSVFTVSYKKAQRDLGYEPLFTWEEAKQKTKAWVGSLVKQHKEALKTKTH
Put plainly: Inhibition of steroid glucuronide metabolite formation in pig hepatocytes by the 3βHSD inhibitor. In kind it is cell-based. The procedure: as §1, §2, §3, §4

[6] abbreviates: 10 µM inhibitor with 17β-estradiol.
Setting [7] is: 10 µM inhibitor with dihydrotestosterone.
The mark [8] stands for this setting: 48 h, 10 µM apigenin with 10 µM 17β-estradiol, Mean ± SD.
[9] abbreviates: 48 h, 10 µM trilostane with 10 µM 17β-estradiol, Mean ± SD.

“Also recorded” adds a separate entry of the source. Like-named read-outs stand apart in the source and are kept apart here.

As to `C[C@]12CC[C@@H]3c4ccc(O[C@@H]5O[C@H](C(=O)O)[C@@H](O)[C@H](O)[C@H]5O)cc4CC[C@H]3[C@@H]1CC[C@@H]2O` [Estradiol 3β-glucuronide, β-estradiol-3-glucuronide], in data set [1], the “Peak height of the ion chromatogram of the steroid metabolite in cell culture medium, C” value (shortened to “Peak height of the ion chromatogram … C”) was found to be 3.1±0.8 cps/1000.
With “5α-androst-16-en-3β-glucuronide [Androstenone glucuronide]”, the “Peak height of the ion chromatogram … C” value in data set [1] is listed as 3.4±0.5 cps/1000.
With `C[C@]12CCC(=O)C[C@@H]1CC[C@@H]1[C@@H]2CC[C@]2(C)C=CC[C@@H]12` [Androstenone, 5α-androst-16-ene-3-one], the Metabolite identified entry in data set [2] is given as “hydroxylated to 3β-A prior to glucuronidation”. Moreover, in data set [3], the viability at 48 h, 1 µM was determined as 90.6 ± 3.8%; the viability at 48 h, 10 µM stood at 89 ± 7.2%; the viability at 48 h, 25 µM was 77.2 ± 0.6%; the viability at 48 h, 50 µM worked out at 78.7 ± 6.8%.
Regarding `O=c1cc(-c2ccc(O)cc2)oc2cc(O)cc(O)c12` [Apigenin, apigenin], in data set [4] (setting [6]), the “Inhibition of E2-G and E1-G formation” value is “no significant inhibition”. Moreover, in data set [4] (10 µM inhibitor with androstenone), the “Effect on the level of androstenone metabolite” value is “did not affect significantly”. Further, in data set [4] (setting [7]), the “Effect on DHT-G level / formation” value is “did not have any effect”. For the same molecule, in data set [4] (setting [8]), the “Peak height of Estradiol 3β-glucuronide in cell culture medium” value is reported as 2.6±0.1 cps/1000 and the “Peak height of Estrone glucuronide in cell culture medium” value is listed as 15.3±1.1 cps/1000. Also, the “Peak height of Androstenone glucuronide in cell culture medium” value in data set [4] (48 h, 10 µM apigenin with 10 µM androstenone, Mean ± SD) came to 3.7±0.9 cps/1000. For the same molecule, the “Peak height of Dihydrotestosterone 17β-glucuronide in cell culture medium” value in data set [4] (48 h, 10 µM apigenin with 10 µM dihydrotestosterone, Mean ± SD) amounted to 11.5±0.5 cps/1000. In data set [3], the viability at 48 h, 1 µM was found to be 97.7 ± 3.2%; the viability at 48 h, 10 µM worked out at 83.5 ± 5.9%; the viability at 48 h, 25 µM is 64.2 ± 1.7%; the viability at 48 h, 50 µM was 69.8 ± 0.9%.
On to `C[C@]12CC[C@H]3[C@@H](CC[C@@]45O[C@@H]4C(O)=C(C#N)C[C@]35C)[C@@H]1CC[C@@H]2O` [Trilostane, trilostane], for which the “Inhibition of E2-G and E1-G formation” value in data set [5] (setting [6]) is listed as “no significant inhibition”. In addition, the “Effect on DHT-G formation” value in data set [5] (setting [7]) is “greatly inhibited”. The “Decrease in the formation of androstenone metabolite” value in data set [5] (10 µM inhibitor, cell culture medium) is on record as 70%. Also, the “Reduction of DHT-G formation” value in data set [5] (10 µM inhibitor, hepatocytes) is roughly 86%. Moreover, in data set [5] (setting [9]), the “Peak height of Estradiol 3β-glucuronide in cell culture medium” value worked out at 2.7±0.4 cps/1000 and the “Peak height of Estrone glucuronide in cell culture medium” value is on record as 13.5±1.7 cps/1000. For the same molecule, the “Peak height of Androstenone glucuronide in cell culture medium” value in data set [5] (48 h, 10 µM trilostane with 10 µM androstenone, Mean ± SD) worked out at 1.0±0.6 cps/1000. Besides, the “Peak height of Dihydrotestosterone 17β-glucuronide in cell culture medium” value in data set [5] (48 h, 10 µM trilostane with 10 µM dihydrotestosterone, Mean ± SD) is reported as 1.6±0.2 cps/1000. In data set [3], the viability at 48 h, 1 µM amounted to 91.8 ± 0.1%; the viability at 48 h, 10 µM worked out at 82.4 ± 2.1%; the viability at 48 h, 25 µM came to 79.1 ± 2.9%; the viability at 48 h, 50 µM stood at 69.2 ± 1.8%.
As to `C[C@]12CC[C@@H]3c4ccc(O)cc4CC[C@H]3[C@@H]1CC[C@@H]2O` [17β-Estradiol], in data set [2], the “Share of 17β-estradiol oxidized at C-17 to estrone, forming E1-G” value is recorded as “over 80%” and the “Share of 17β-estradiol undergoing direct phase II metabolism, forming E2-G” value is given as “Less than 20%”. Further, the “Parent steroid in cell culture medium after incubation with hepatocytes” value in data set [2] (6 h) is given as “No 17β-estradiol was found”. For the same molecule, in data set [3], the viability at 48 h, 1 µM worked out at 109 ± 4.8%; the viability at 48 h, 10 µM worked out at 91.6 ± 0.4%; the viability at 48 h, 25 µM came to 89.8 ± 8%; the viability at 48 h, 50 µM was 83.6 ± 1.6%.
`C[C@]12CCC(=O)C[C@@H]1CC[C@@H]1[C@@H]2CC[C@]2(C)[C@@H](O)CC[C@@H]12` [Dihydrotestosterone]: the Metabolite identified in data set [1] (10 µM steroid, LC-TOF-MS, cell culture medium) is 5α-dihydrotestosterone-17β-glucuronide. In addition, in data set [1] (10 µM steroid, after 6 h of incubation), the “Parent steroid in cell culture medium after incubation with hepatocytes” value was “rapidly metabolized; also recorded: No dihydrotestosterone was found”. In data set [3], the viability at 48 h, 1 µM is 96.7 ± 0.1%; the viability at 48 h, 10 µM was 84.3 ± 3.9%; the viability at 48 h, 25 µM came out at 79.1 ± 2.2%; the viability at 48 h, 50 µM was 76.1 ± 4.7%.
In the case of `C[C@]12CC[C@@H]3c4ccc(O[C@@H]5O[C@H](C(=O)O)[C@@H](O)[C@H](O)[C@H]5O)cc4CC[C@H]3[C@@H]1CCC2=O` [Estrone glucuronide, estrone-3-glucuronide], the “Peak height of the ion chromatogram … C” value in data set [1] was determined as 16.5±2.2 cps/1000.
